Laboratory results from patent US12096769B2, “Mechanism of urea/solid acid interaction under storage conditions and storage stable solid compositions comprising urea and acid” (ECOLAB USA INC., priority 2017, dated 2024).

Legend:
Assay type in all cases: physicochemical
[1] = pH in 17 grains per gallon (gpg) water, Example 5; details: Dose 625 ppm
Source text: The pH of the urea/citric acid complex was also compared to those of citric acid and monosodium citrate.

[2] = Swelling of tablets made with various acids as the acid filler, Example 2
[3] = Tablet dimensional change at 40° C. and 90% humidity, Example 6; details: acid filler of the formulation
Procedure: A formulation using urea/citric acid complex as the acid filler were compared to those using urea or a mixture of urea and citric acid. In this Example, tablets were made according to the formulations in Table 8, then placed at 40° C. and 90% humidity. Their dimensional changes were measured during two-weeks period of time.

[4] = Block stability in a dispenser (swelling after 1 minute soak in water), Example 7; details: soaked in 1 inch of water at 43.3° C. (110° F.) for 1 minute; up to 18 hours
Procedure: Various blocks made from different formulations were screened for their block stability in a dispenser. During the experiments, the blocks were soaked in 1 inch of water at 43.3° C. (110° F.) for 1 minute, then measured for their swelling as a function of time.

Structure (SMILES)	pH in 17 gpg Water [1]	Swelling of the tablet using the acid as the filler ([2]; 4 Week at 40° C.)	also measured
O=C(O)CC(O)(CC(=O)O)C(=O)O [Citric Acid]	4.45		
CC(O)C(=O)O (centres unmarked) [Lactic Acid]		Weeping	State of the tablet using the acid as the filler ([2]; at 50° C.): melted
O=C(O)/C=C\C(=O)O [Maleic Acid]		Melted	
O=C(O)CC(O)C(=O)O (centres unmarked) [Malic Acid]		~5%	
O=C(O)CC(=O)O [Malonic Acid]		Weeping	
O=C([O-])CC(O)(CC(=O)O)C(=O)O.[Na+] [Monosodium citrate]	5.6		
NC(N)=O.O=C(O)CC(O)(CC(=O)O)C(=O)O [Urea-Citrate, urea-citric acid complex]	4.8		Swelling of the tablet using the acid as the filler ([2]; at 2 weeks, 40° C.): 0.5% at 2 weeks; Storage stability as measured by percentage swelling (in words) [3]: best storage stability; Swelling of the block after soak (in words) [4]: swelling is minimal
